Assay results from patent US20250049972A1, “METHOD OF DETECTING PROSTATE CANCER IN A HUMAN SUBJECT USING A Cu 64 PSMA I&T INJECTION” (Curium US LLC, priority 2023, published 2025).

Experiments:
[1] = set-up: species or system human; conditions: in vivo
Experimental: Safety was assessed in all patients following administration of copper Cu-64 PSMA I&T injection through collection of AE reporting, laboratory assessments, vital signs, and ECG. The Phase 2 portion assessed safety after copper Cu-64 PSMA I&T injection through collection of AEs 24 hours post-injection, lab assessments, vital signs, and ECGs.

[2] = test system: prostate cancer lesions; assay: Phase 2 PET/CT imaging: CLR, CDR and per patient sensitivity/specificity vs Composite Reference Standard, 3 blinded readers; assay type: in vivo, human; conditions: for Average Patient CDR: Average Correct Detection Rate (Standard Deviation) / Correct Localization Rate, region level / Number of Lesions Correctly Identified: IME Population; for Average Patient CDR: Average Correct Detection Rate (Standard Deviation) / Correct Localization Rate, region level: Phase 2; for Correct Localization Rate (region level CLR) / Number of Segments Correctly Identified / Pa Patient Specificity: Correct Patient Detection Rate / Pet Patient Sensitivity: Correct Patient Detection Rate: ITI Population; for Correct Localization Rate (region level CLR): 7-9 mCi; for Number of Lesions Correctly Identified: of 30 lesions truth; for Number of Segments Correctly Identified: of 30 segments truth
Experimental: A study was conducted to evaluate the use of Cu-64 PSMA I&T injection in imaging human patients with recurrent metastatic prostate cancer. The primary objectives were to determine efficacy on region and patient level and to assess safety for use with humans. The secondary objective was to assess image quality or AIQ using CLR and CDR. The study had two co-primary endpoints. First, region-level CLR defined as the percentage of regions containing at least one true PET positive lesion, with exactly localized correspondence between PET/CT imaging and the Composite Reference Standard regardless of any co-existent false positive findings, within the same region, out of all regions containing at least one PET positive finding. Second, patient-level CDR defined as the percentage of patients who have at least one true PET positive lesion, with exactly localized correspondence between PET imaging and the Composite Reference Standard, regardless of any co-existent false positive findings, out of all patients who are scanned. Both endpoints were measured for 1 and 4 hours post injection using PET scans. The study was powered to detect a CLR (detection rate) of greater than 60%. A sample size of 26 patients has an 80% power of detecting a true sensitivity of 85%. Key inclusion criteria included histologically proven prostate adenocarcinoma, prior radical prostatectomy, radiation therapy with curative intent, disease recurrence based on defined rise in PSA, and at least one extra prostatic site of disease suspected based on prior imaging or diagnosed by biopsy. Patients were administered 7-9 mCi Cu-64 PSMA I&T injection and then PET and/or CT images were acquired for all patients starting at approximately […] and 4 hours±30 minutes post Cu-64 PSMA I&T injection. Indeed, the images were collected from an approximate range of 45 minutes to 4 hours and 30 minutes post injection for all patients. The PET and CT images were interpreted independently by three readers blinded to all patient information. Each patient study was assessed and scored for the detection of prostate cancer. Specifically, each reader categorized images as “Disease” or “No Disease” based only on tumor uptake of Cu-64 PSMA-I&T in each of the five regions: (1) prostate bed or prostate gland, (2) lymph nodes (pelvic), (3) lymph nodes (extra pelvic), (4) bone, and (5) viscera/soft tissue. Analysis of the reads were used for determination of the CLR and CDR by comparison to the Composite Reference Standard. The Composite Reference Standard was defined as local histopathology obtained within 60 days before or following Cu-64 PSMA I&T PET/CT, or, if histopathology was not available, anatomical correlation of conventional image findings (e.g., targeted MRI or CT or any FDA-approved PET PSMA agent) obtained within 60 days before or following Cu-64 PSMA I&T PET/CT. A statistical threshold (with a lower bound of the 95% confidence interval) of 60% was prespecified for both CLR and CDR endpoints. The Phase 2 portion of the study included a separate group of 26 patients with biochemical recurrent PC. The dose for the Phase 2 portion of the study was 9 mCi with an acceptable range of 7 to 9 mCi. PET/CT images were acquired for all patients at 1 hour (±15 minutes) and 4 hours (±0.5 hours) post injection. The PET/CT images were interpreted independently by 3 readers blinded to all patient information. Each patient was assessed and scored for the detection of prostate cancer lesions. Specifically, each reader categorized images as “Disease” or “No Disease” based only on tumor uptake of copper Cu-64 PSMA I&T in each of 5 regions: (1) prostate bed or prostate gland, (2) lymph nodes (pelvic), (3) lymph nodes (extra pelvic), (4) bone, and (5) viscera/soft tissue. Analysis of the reads was used for determination of the CLR and CDR for 1 hour and 4 hours post-injection imaging of copper Cu-64 PSMA I&T PET/CT by comparison to a composite reference standard collected for each enrolled patient. […]

[3] = all 3 readers at both 1 and 4 hours

## O=C(O)CC[C@H](NC(=O)N[C@@H](CCCCNC(=O)CCCCCCC(=O)NCCCC[C@@H](NC(=O)[C@@H](Cc1ccccc1)NC(=O)[C@@H](Cc1ccc(O)c(I)c1)NC(=O)CC[C@H](C(=O)O)N1CCN(CC(=O)O)CCN(CC(=O)O)CCN(CC(=O)O)CC1)C(=O)O)C(=O)O)C(=O)O [Cu-64 PSMA I&T, 64 Cu-(3S, 7S, 26R, 29R, 32R, 37R)-29-benzyl-32(4-hydroxy-3-iodobenzyl)-5, 13, 20, 28, 31, 34-hexaoxo-37-(4,7,10-tris(carboxymethyl)-1,4,7, 10-tetraazacyclododecan-1-yl)-4,6, 12, 21, 27, 30, 33-heptaazaheptatriacontane-1,3,7, 26, 37-pentacarboxylic acid, metal not drawn]
[1]
  patients who experienced at least 1 AE: 2
  relationship of the adverse events to study product: not related
  serious adverse events attributed to the injection: No serious adverse events
  seriousness of the adverse events: not serious
  severity of the adverse events: mild
[2]; READER 1, 1 Hour Image
  Average Patient CDR: Average Correct Detection Rate (Standard Deviation): 84.21% (33.552%)
  Correct Localization Rate, region level: 86.67%
  Correct Localization Rate (region level CLR): 86.67%
  Number of Lesions Correctly Identified: 26
  Number of Segments Correctly Identified: 26
[2]; READER 1, 1 Hour image
  Pa Patient Specificity: Correct Patient Detection Rate: 100.00%
  Pet Patient Sensitivity: Correct Patient Detection Rate: 100.00%
[2]; READER 1, 4 Hour Image
  Average Patient CDR: Average Correct Detection Rate (Standard Deviation): 84.21% (33.552%)
  Correct Localization Rate, region level: 86.67%
  Pa Patient Specificity: Correct Patient Detection Rate: 100.00%
  Pet Patient Sensitivity: Correct Patient Detection Rate: 100.00%
  Correct Localization Rate (region level CLR): 86.67%
  Number of Lesions Correctly Identified: 26
  Number of Segments Correctly Identified: 26
[2]; READER 2, 1 Hour Image
  Average Patient CDR: Average Correct Detection Rate (Standard Deviation): 77.19% (38.172%)
  Correct Localization Rate, region level: 76.7%
  Pa Patient Specificity: Correct Patient Detection Rate: 100.00%
  Pet Patient Sensitivity: Correct Patient Detection Rate: 100.00%
  Correct Localization Rate (region level CLR): 76.67%
  Number of Lesions Correctly Identified: 23
  Number of Segments Correctly Identified: 26
[2]; READER 2, 4 Hour Image
  Average Patient CDR: Average Correct Detection Rate (Standard Deviation): 79.82% (37.916%)
  Correct Localization Rate, region level: 80.00%
  Pa Patient Specificity: Correct Patient Detection Rate: 100.00%
  Pet Patient Sensitivity: Correct Patient Detection Rate: 100.00%
  Correct Localization Rate (region level CLR): 80.00%
  Number of Lesions Correctly Identified: 24
  Number of Segments Correctly Identified: 24
[2]; READER 3, 1 Hour Image
  Average Patient CDR: Average Correct Detection Rate (Standard Deviation): 80.70% (35.252%)
  Correct Localization Rate, region level: 80.110%
  Pa Patient Specificity: Correct Patient Detection Rate: 100.00%
  Pet Patient Sensitivity: Correct Patient Detection Rate: 100.00%
  Correct Localization Rate (region level CLR): 80.00%
  Number of Lesions Correctly Identified: 24
  Number of Segments Correctly Identified: 24
[2]; READER 3, 4 Hour Image
  Average Patient CDR: Average Correct Detection Rate (Standard Deviation): 80.70% (35.252%)
  Correct Localization Rate, region level: 80.00%
  Pa Patient Specificity: Correct Patient Detection Rate: 100%
  Pet Patient Sensitivity: Correct Patient Detection Rate: 100.00%
  Correct Localization Rate (region level CLR): 80.00%
  Number of Lesions Correctly Identified: 24
  Number of Segments Correctly Identified: 24
[2]; [3]
  patient level CDR vs prespecified threshold: > 60%
  region level CLR vs prespecified threshold: > 60%
[2]; all patients, both 1 and 4 hour images
  correct patient detection rate (per patient sensitivity and specificity): 100.00%
[2]; of 26 patients
  patients with no lesions detected on the PET/CT scan: 7
  patients with positive lesions on the PET/CT scan: 19
